Assay results taken from patent US20080234262A1 (Wyeth, priority 2007, published 2008).

Assays:
breast line MDA468 = test: In vitro cell culture growth assay (MTS), MDA468; format: cell-based, human; conditions: MDA468 cells, three days after drug treatment
In short: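 Cells were plated and, one day later, exposed to inhibitors for three days; viable cell density was then measured by metabolic conversion of MTS dye, read as absorbance at 490 nm. Growth is expressed as percent of vehicle-treated control cells on the same plate.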

PI3K = PI3K (Homo sapiens, UniProt P42336); test: Fluorescence polarization assay for PI3K; format: biochemical; conditions: PI3Kα; read-out: PI3Kα IC50;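 note: PI3K kinase reaction on PIP2 with ATP, 30-60 min, product sensed by GST-GRP with red probe in fluorescence polarization (mP), controls without enzyme and at zero time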
PI3K, sequence (P42336 whole entry): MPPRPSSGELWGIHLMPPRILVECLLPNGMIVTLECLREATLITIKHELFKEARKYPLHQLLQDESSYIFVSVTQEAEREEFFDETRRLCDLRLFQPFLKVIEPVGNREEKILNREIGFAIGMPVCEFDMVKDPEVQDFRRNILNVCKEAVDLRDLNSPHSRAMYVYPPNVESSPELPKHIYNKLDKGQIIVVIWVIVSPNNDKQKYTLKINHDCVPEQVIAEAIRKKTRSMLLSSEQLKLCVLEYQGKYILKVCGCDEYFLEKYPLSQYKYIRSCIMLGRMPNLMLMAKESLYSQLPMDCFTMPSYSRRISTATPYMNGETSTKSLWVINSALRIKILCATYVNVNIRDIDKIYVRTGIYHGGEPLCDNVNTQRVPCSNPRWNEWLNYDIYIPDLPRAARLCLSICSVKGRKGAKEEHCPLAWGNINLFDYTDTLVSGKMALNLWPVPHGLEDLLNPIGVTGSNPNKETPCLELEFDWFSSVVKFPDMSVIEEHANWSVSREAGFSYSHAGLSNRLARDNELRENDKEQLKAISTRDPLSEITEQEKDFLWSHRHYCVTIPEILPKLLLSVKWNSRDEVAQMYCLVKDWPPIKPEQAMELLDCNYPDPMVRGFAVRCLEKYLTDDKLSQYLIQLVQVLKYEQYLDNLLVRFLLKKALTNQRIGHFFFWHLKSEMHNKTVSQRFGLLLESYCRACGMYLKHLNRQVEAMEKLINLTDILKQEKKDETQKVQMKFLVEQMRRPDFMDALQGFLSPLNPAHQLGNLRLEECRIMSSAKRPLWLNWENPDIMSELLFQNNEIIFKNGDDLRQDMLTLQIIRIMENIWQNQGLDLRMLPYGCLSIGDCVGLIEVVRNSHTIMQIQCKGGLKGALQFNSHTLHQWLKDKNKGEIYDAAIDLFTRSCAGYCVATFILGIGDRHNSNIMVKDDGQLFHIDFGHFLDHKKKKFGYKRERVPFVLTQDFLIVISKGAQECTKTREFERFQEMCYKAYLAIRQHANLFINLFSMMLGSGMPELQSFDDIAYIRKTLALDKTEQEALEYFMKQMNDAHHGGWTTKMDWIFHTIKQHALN
PI3K, sequence (P27986 whole entry partner): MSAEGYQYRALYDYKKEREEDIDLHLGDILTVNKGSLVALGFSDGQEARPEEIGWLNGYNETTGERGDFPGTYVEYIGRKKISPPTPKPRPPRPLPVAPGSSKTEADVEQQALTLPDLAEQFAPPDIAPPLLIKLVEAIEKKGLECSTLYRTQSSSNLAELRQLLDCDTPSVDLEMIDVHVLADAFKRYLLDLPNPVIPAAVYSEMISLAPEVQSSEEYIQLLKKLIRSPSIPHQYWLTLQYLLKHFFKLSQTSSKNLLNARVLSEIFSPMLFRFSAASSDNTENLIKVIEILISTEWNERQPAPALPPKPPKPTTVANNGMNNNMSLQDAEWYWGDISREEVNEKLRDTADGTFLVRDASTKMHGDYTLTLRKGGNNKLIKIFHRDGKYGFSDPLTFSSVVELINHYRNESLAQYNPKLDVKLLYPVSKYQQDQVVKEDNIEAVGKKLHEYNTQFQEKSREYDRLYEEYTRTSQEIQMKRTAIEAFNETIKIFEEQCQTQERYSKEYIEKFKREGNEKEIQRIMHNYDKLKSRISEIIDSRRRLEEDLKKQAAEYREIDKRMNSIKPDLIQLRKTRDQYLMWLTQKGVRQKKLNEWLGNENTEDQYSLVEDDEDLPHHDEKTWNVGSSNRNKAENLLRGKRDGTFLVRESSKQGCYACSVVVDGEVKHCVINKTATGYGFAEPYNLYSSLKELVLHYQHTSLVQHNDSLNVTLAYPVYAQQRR

prostate line LNCap = test: In vitro cell culture growth assay (MTS), LNCap; format: cell-based, human; conditions: LNCap cells, three days after drug treatment

SMILES | IC50 (PI3K) [nM] | IC50 (prostate line LNCap; Homo sapiens, LNCaP, 72 h) [nM] | IC50 (prostate line LNCap) [nM] | IC50 (breast line MDA468; Homo sapiens, 72 h) [nM] | IC50 (breast line MDA468) [nM]
NNC(=O)Nc1ccc(-c2nc(N3CCOCC3)c3cnn(C4CCN(Cc5ccccc5)CC4)c3n2)cc1 [Compound 554, N-{4-[1-(1-benzylpiperidin-4-yl)-4-morpholin-4-yl-1H-pyrazolo[3,4-d]pyrimidin-6-yl]phenyl}hydrazinecarboxamide] | 155 | 900 |  | 7500 | 
CCOC(=O)N1CCC(n2ncc3c(N4CCOC[C@H]4C)nc(-c4ccc(NC(=O)NCCF)cc4)nc32)CC1 [Compound 890, ethyl 4-{6-(4-{[(2-fluoroethyl)carbamoyl]amino}phenyl)-4-[(3R)-3-methylmorpholin-4-yl]-1H-pyrazolo[3,4-d]pyrimidin-1-yl}piperidine-1-carboxylate] | 4550 | 12 |  | 500 | 
O=C(O)CCC(=O)Nc1ccc(-c2nc(N3CCOCC3)c3cnn(C4CCN(Cc5ccccc5)CC4)c3n2)cc1 [Compound 81] | 3680 | 60000 |  | 45000 | 
Cc1cc(NC(=O)Nc2ccc(-c3nc(N4CCOCC4)c4cnn(C5CCN(C(=O)OC(C)(C)C)CC5)c4n3)cc2)on1 [Compound 883, tert-butyl 4-[6-(4-{[(3-methylisoxazol-5-yl)carbamoyl]amino}phenyl)-4-morpholin-4-yl-1H-pyrazolo[3,4-d]pyrimidin-1-yl]piperidine-1-carboxylate] | 160 | 270 |  | 1300 | 
COC(=O)N1CCC(n2ncc3c(N4CCOCC4)nc(-c4ccc(NC(=O)Nc5ccccn5)cc4)nc32)CC1 [Compound 736, methyl 4-(4-morpholin-4-yl-6-{4-[(pyridin-2-ylcarbamoyl)amino]phenyl}-1H-pyrazolo[3,4-d]pyrimidin-1-yl)piperidine-1-carboxylate] | 1150 | 565 |  | 17000 | 
CNC(=O)Nc1ccc(-c2nc(N3CCOCC3)c3cnn(C4CCN(Cc5ccccn5)CC4)c3n2)cc1 [Compound 575, 1-methyl-3-(4-{4-morpholin-4-yl-1-[1-(pyridin-2-ylmethyl)piperidin-4-yl]-1H-pyrazolo[3,4-d]pyrimidin-6-yl}phenyl)urea] | 64 | < 27 |  | 500 | 
CNC(=O)Nc1ccc(-c2nc(N3CCOCC3)c3cnn(C4CCN(C(=O)c5cccnc5Cl)CC4)c3n2)cc1 [Compound 425, 1-[4-(1-{1-[(2-chloropyridin-3-yl)carbonyl]piperidin-4-yl}-4-morpholin-4-yl-1H-pyrazolo[3,4-d]pyrimidin-6-yl)phenyl]-3-methylurea] | 100 | 80 |  | 500 | 
c1ccc(-n2ncc3c(N4CCOCC4)nc(-c4ccc[nH]4)nc32)cc1 [Compound 6] | 1350 | 2400 |  | 11000 | 
O=C1Cc2cc(-c3nc(N4CCOCC4)c4cnn(-c5ccccc5)c4n3)ccc2N1 [Compound 677, 5-(4-morpholin-4-yl-1-phenyl-1H-pyrazolo[3,4-d]pyrimidin-6-yl)-1,3-dihydro-2H-indol-2-one] | 1030 |  | > 60000 |  | > 60000
COC(=O)N1CCC(n2ncc3c(N4CCOCC4)nc(-c4ccc(NC(=O)Nc5ccc(CCN6CCNCC6)cc5)cc4)nc32)CC1 [Compound 916, methyl 4-{4-morpholin-4-yl-6-[4-({[4-(2-piperazin-1-ylethyl)phenyl]carbamoyl}amino)phenyl]-1H-pyrazolo[3,4-d]pyrimidin-1-yl}piperidine-1-carboxylate] | 20 | 1.3 |  | 110 | 
CNC(=O)Nc1ccc(-c2nc(N3CCOCC3)c3cnn(C4CCN(C(=O)c5cccnc5)CC4)c3n2)cc1 [Compound 219] | 548 | 150 |  | 600 | 
CC#CCOC(=O)N1CCC(n2ncc3c(N4CCOCC4)nc(-c4ccc(NC(=O)NC)cc4)nc32)CC1 [Compound 801, but-2-yn-1-yl 4-(6-{4-[(methylcarbamoyl)amino]phenyl}-4-morpholin-4-yl-1H-pyrazolo[3,4-d]pyrimidin-1-yl)piperidine-1-carboxylate] | 50 | 31 |  | 120 | 
CNC(=O)Nc1ccc(-c2nc(N3CCOCC3)c3cnn(C4CCN(C(=O)c5cccc(C(F)(F)F)c5)CC4)c3n2)cc1 [Compound 605, 1-methyl-3-[4-(4-morpholin-4-yl-1-{1-[3-(trifluoromethyl)benzoyl]piperidin-4-yl}-1H-pyrazolo[3,4-d]pyrimidin-6-yl)phenyl]urea] | 76 | 45 |  | 160 | 
CNC(=O)Nc1ccc(-c2nc(N3CCOCC3)c3cnn(C4CCN(C(=O)c5cccc(Cl)c5)CC4)c3n2)cc1 [Compound 604, 1-(4-{1-[1-(3-chlorobenzoyl)piperidin-4-yl]-4-morpholin-4-yl-1H-pyrazolo[3,4-d]pyrimidin-6-yl}phenyl)-3-methylurea] | 53 | < 27 |  | 50 | 
COC(=O)N1CCC(n2ncc3c(N4CCOCC4)nc(-c4ccc(NC(=O)OCCN5CCCC5)cc4)nc32)CC1 [Compound 905, methyl 4-[4-morpholin-4-yl-6-(4-{[(2-pyrrolidin-1-ylethoxy)carbonyl]amino}phenyl)-1H-pyrazolo[3,4-d]pyrimidin-1-yl]piperidine-1-carboxylate] | 250 | 1400 |  | 4500 | 
CNC(=O)Nc1ccc(-c2nc(N3CCOCC3)c3cnn(C4CCN(C(=O)c5cccc(C(F)(F)F)c5)CC4)c3n2)cc1 [Example 359, 1-methyl-3-[4-(4-morpholin-4-yl-1-{1-[3-(trifluoromethyl)benzoyl]piperidin-4-yl}-1H-pyrazolo[3,4-d]pyrimidin-6-yl)phenyl]urea] | 76 | 45 |  | 200 | 

Continued, in another order:

IC50 (PI3K) [nM] | IC50 (prostate line LNCap; Homo sapiens, LNCaP, 72 h) [nM] | IC50 (prostate line LNCap) [nM] | SMILES | IC50 (breast line MDA468; Homo sapiens, 72 h) [nM] | IC50 (breast line MDA468) [nM]
23 | 170 |  | Nc1ncc(-c2nc(N3CCOCC3)c3cnn(C4CCN(Cc5cccnc5)CC4)c3n2)cn1 [Compound 211] | 800 | 
35 | 410 |  | Oc1cccc(-c2nc(N3CCOCC3)c3cnn(C4CCCCC4)c3n2)c1 [Example 91, 3-(1-cyclohexyl-4-morpholin-4-yl-1H-pyrazolo[3,4-d]pyrimidin-6-yl)phenol] | 2500 | 
3990 | 1800 |  | OCCN1CCC(n2ncc3c(N4CCOCC4)nc(-c4ccc5[nH]ccc5c4)nc32)CC1 [Compound 246, 2-{4-[6-(1H-indol-5-yl)-4-morpholin-4-yl-1H-pyrazolo[3,4-d]pyrimidin-1-yl]piperidin-1-yl}ethanol] | 3000 | 
63 | 150 |  | O=C(c1ccc(Cl)nc1)N1CCC(n2ncc3c(N4CCOCC4)nc(-c4cccc(O)c4)nc32)CC1 [Example 23] | 800 | 
4200 | 12000 |  | CS(=O)(=O)Nc1cccc(-c2nc(N3CCOCC3)c3cnn(C4CCN(Cc5ccccc5)CC4)c3n2)c1 [Compound 84] | 12000 | 
1460 | 1900 |  | CN(C)CC(=O)N1CCC(n2ncc3c(N4CCOCC4)nc(-c4ccc5[nH]ccc5c4)nc32)CC1 [Compound 94] | 4200 | 
1650 | 700 |  | O=C(c1ncccc1O)N1CCC(n2ncc3c(N4CCOCC4)nc(-c4ccc5[nH]ccc5c4)nc32)CC1 [Example 198, 2-({4-[6-(1H-indol-5-yl)-4-morpholin-4-yl-1H-pyrazolo[3,4-d]pyrimidin-1-yl]piperidin-1-yl}carbonyl)pyridin-3-ol] | 4000 | 
